The source made the active and inactive calls. No cut-off for these calls is given here.
Experiments:
RKO = assay: Antiproliferative activity against human RKO cells incubated for 48 hrs by MTS assay; assay type: functional, cell-based
HCT-116 [1] = assay: Antiproliferative activity against human HCT-116 cells incubated for 48 hrs by MTS assay; assay type: functional, cell-based; details: HCT-116, 48 h
HCT-116 [2] = assay: Antitumor activity against human HCT-116 cells xenografted in BALB/c mouse assessed as inhibition of tumor growth at 20 mg/kg, ip administered for 2 weeks; assay type: functional, organism-based

Structure (SMILES) | IC50 (RKO) | IC50 (HCT-116 [1]) | Activity (HCT-116 [2])
COc1cc2c(c(O)c1C(=O)/C=C/c1ccccc1)C=CC(C)(C)O2 | 23.6 µM | 24.9 µM | –
COc1cccc(/C=C/C(=O)c2c(OC)cc3c(c2O)C=CC(C)(C)O3)c1 | 24.4 µM | 25.1 µM | –
COc1cc2c(c(O)c1C(=O)/C=C/c1cccc(N3CCN(C)CC3)c1)C=CC(C)(C)O2 | 128 µM | 12.5 µM | –
COc1cc2c(c(O)c1C(=O)/C=C/c1ccc(N3CCN(C)CC3)cc1)C=CC(C)(C)O2 | 13.5 µM | 12.5 µM | –
COc1cc2c(c(O)c1C(=O)/C=C/c1ccc(O)c(Br)c1)C=CC(C)(C)O2 | 21.1 µM | 24.6 µM | –
COc1cc2c(c(O)c1C(=O)/C=C/c1ccccc1O)C=CC(C)(C)O2 | 10.9 µM | 12.9 µM | –
COc1cc2c(c(O)c1C(=O)/C=C/c1ccc(Br)cc1)C=CC(C)(C)O2 | 157 µM | 154 µM | –
O=c1[nH]cc(F)c(=O)[nH]1 | – | – | Active
COc1cc2c(c(O)c1C(=O)/C=C/c1ccccc1Br)C=CC(C)(C)O2 | 23.1 µM | 20.5 µM | –

— ChEMBL document CHEMBL6078725, “Discovery of novel xanthohumol C derivatives regulating XRCC2 transcription and expression for the treatment of colorectal cancer” (Bioorg Med Chem, 2025)
